{"source": "patent US6989435B2", "about": "“Compounds and methods to inhibit or augment an inflammatory response” (Cambridge University Technical Services Ltd., priority 1997, dated 2006)", "key": {"[1]": {"system": "SDF-1α induced human monocyte migration", "test": "Human monocyte migration, SDF-1α induced", "format": "cell-based", "conditions": "Table 4(c); 100 μM peptide; n.s. = no statistically significant inhibition", "method": "Agents may also be screened in a chemotactic assay which employs human neutrophils, eosinophils, mast cells, basophils, platelets, lymphocytes or monocytes. For monocytes, 9 mls of fresh blood are transferred to a tube containing 1 ml of 3.8% sodium citrate, and left at room temperature for 15 minutes. Five mls of this anti-coagulated blood are carefully layered over 3.5 ml Polymorphprep® (Nycomed Pharma, Oslo), and centrifuged at 500 g for 35 minutes per the manufacturer's instructions. The top band at the sample/medium interface contains monocytes. The monocytes are carefully removed with a glass pipette, and reconstituted to the original volume (5 ml). The cells are washed with PBS plus 10% fetal calf serum, and centrifuged at 400 g for 10 minutes. The washing step is repeated three times before the cells are counted. Cells are resuspended at 1×10^7 cells/ml in RPMI-1640+10% fetal calf serum (FCS). The monocytes are cultured for two days at 37° C. in a humidified atmosphere of 5% CO2.\nOn day 2, the cells are counted, spun down, and reconstituted to 1×10^7 cells/ml in Gey's balanced salt solution+1 mg/ml bovine serum albumin (BSA). […]"}, "[2]": {"molecular_target": "T1, Duffy Antigen Receptor for Chemokines (DARC) (Homo sapiens, UniProt Q16570)", "T1 sequence (Q16570 1-336)": "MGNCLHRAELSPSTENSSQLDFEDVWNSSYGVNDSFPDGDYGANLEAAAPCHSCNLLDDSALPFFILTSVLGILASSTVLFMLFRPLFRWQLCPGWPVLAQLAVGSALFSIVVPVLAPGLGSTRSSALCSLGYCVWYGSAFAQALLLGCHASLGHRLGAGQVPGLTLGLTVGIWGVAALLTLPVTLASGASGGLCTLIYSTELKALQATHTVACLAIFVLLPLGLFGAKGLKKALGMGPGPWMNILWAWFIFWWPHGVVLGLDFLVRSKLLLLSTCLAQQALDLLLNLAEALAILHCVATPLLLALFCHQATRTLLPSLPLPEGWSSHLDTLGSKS", "test": "DARC binding: competition with 125I-labeled MCP-1 on red blood cells"}}, "data": [{"sequence": "EICADPKQKWVQ [Peptide 3]", "values": [{"measurement": "Extent of inhibition of human monocyte migration at 100 μM, SDF-1α", "setting": "[1]", "value": 108, "unit": "%"}, {"measurement": "DARC binding, in words", "setting": "[2]", "value": "low μM concentration range"}, {"measurement": "DUFFY SELECTIVITY", "setting": "[2]; Table 7, estimated ka for binding to red blood cells divided by average inhibitory ED50 versus each of the chemokines", "value": 1.00}]}]}
